Where two headings read alike, the source gives them in different places.
Assays:
Hcy fibrils [1] = experiment: TEM of pre-formed solutions of Hcy with polyphenols; conditions: Hcy 2 mg/mL + 1 mM EGCG or 0.1 mM TA
Experimental: Hcy was dissolved at 90° C. in PBS at various concentrations followed by gradual cooling of the solution. Where indicated, EGCG or TA (final concentration of 1 mM and 0.1 mM, respectively) were added before gradual cooling. Subsequently, 10 μL samples were placed on 400-mesh copper grids. After 2 min, excess fluids were removed. Samples were viewed using a JEOL 1200EX electron microscope operating at 80 kV.

cys4Δ yeast strain [2] = format: cell-based, Saccharomyces cerevisiae
Experimental: The cys4 gene was disrupted in wild-type (WT) yeast strain (BY4741) via homologous recombination using PCR fragments amplified from the plasmid pFA6a-KanMX6 as a template with primer DL154:
(§1) WT and cys4Δ strains were grown overnight at 30° C. Unless otherwise specified, the strains were grown on synthetic defined medium (SD) containing 20 mg/L L-methionine, 20 mg/L L-histidine monohydrochloride monohydrate, 20 mg/L uracil and 30 mg/L L-leucine. Cysteine was added to a final concentration of 13 mg/L. Hcy was added at the indicated concentrations.
For spotting assays, strains were diluted to 6.25*10^7 cells/mL and then 5-fold serially diluted and spotted on the indicated plates. Plates were incubated at 30° C. for 2-3 days.
(§2) For OD600 measurements, strains were diluted to OD600 0.01. 200 μL of cells were platted on 96 wells plates and incubated at 30° C. for 30 hours with continuous shaking. OD600 was measured using Tecan™ SPARK 10M plate reader.
(§3) The percentage of growth analysis (FIG. 10F) represents the OD600 levels following 27 hours of growth in the plate reader. The percentage of growth represents the growth under the indicated conditions, with or without 0.3 mM TA, compared to the growth of WT without TA.

WT yeast strain (BY4741) = experiment: Yeast growth assay, WT strain; format: cell-based, Saccharomyces cerevisiae; conditions: 0.3 mM TA, SD with 13 mg/L cysteine and 100 mg/L Hcy, 27 hours
Experimental: as §1, §2, §3

SH-SY5Y cells [3] = experiment: MTT cell viability assay, SH-SY5Y cells; format: cell-based, human; conditions: for Cell viability with inhibitor-containing Hcy solution compared to Hcy alone (MTT): Hcy 2 mg/mL with EGCG 0.1 mM or TA 0.01 mM
Experimental: SH-SY5Y cells (ATCC CRL-2266) or HEK293 cells (ATCC® CRL-1573) were cultured (2×10^5 cells/mL) in DMEM/Nutrient Mixture F12 (Ham's; 1:1) supplemented with 10% fetal bovine serum (FBS) in 96-well tissue microplates (100 μL per well) and allowed to adhere overnight at 37° C. Half of each plate was plated with cells, with the other half later serving as a control containing solutions alone. The treatment solutions were prepared as follows: Hcy or methionine were dissolved at 90° C. and at various concentrations in cell media without FBS, followed by gradual cooling of the solutions. For solutions containing polyphenols, Hcy (final concentration of 2 mg/mL) was similarly dissolved in cell media and mixed with EGCG or TA (final concentration of 0.1 mM and 0.01 mM, respectively, stock solution dissolved in cell medium) before gradual cooling. The medium was replaced and cells were treated with the solutions (100 μL per well), followed by overnight incubation at 37° C. Control cells were incubated with medium that was treated in the same manner (without Hcy). Controls of media supplemented with the inhibitors, without Hcy, were examined as well. Cell viability was evaluated using the 3-(4,5-dimethylthiazolyl-2)-2,5-diphenyltetrazolium bromide (MTT) assay. Briefly, 10 μL of 5 mg/mL MTT dissolved in PBS was added to each well. After a 4 hours incubation at 37° C. 100 μL of extraction buffer […] dissolved in a mixture of 50% DMF and 50% DDW (pH 4.7)] was added to each well, and the plates were further incubated at 37° C. for 30 min. Finally, color intensity was measured using an ELISA reader at 570 nm. Blank measurements of the solutions without cells were respectively subtracted. The data points are presented as mean±SD. For inhibitors and methionine controls, two-tailed Student's t test was performed when two groups were compared.

Hcy fibrils [4] = experiment: ThT binding assay, inhibition of Hcy self-assembly by polyphenols; format: biochemical; conditions: 1 mM EGCG or 0.1 mM TA added at timepoint zero; Hcy in PBS; emission 480 nm, excitation 440 nm
Experimental: Hcy was dissolved at 90° C. in PBS to a final concentration of 10, 5 and 2 mg/mL and maintained at 90° C. until the beginning of the measurement. Samples containing polyphenols were immediately mixed with the inhibitors. EGCG or TA (final concentration of 1 mM and 0.1 mM, respectively). As a control, Hcy was diluted with PBS alone to the same final concentrations. ThT in PBS was added to a final concentration of 20 μM for 5 and 10 mg/ml Hcy or 40 μM for 2 mg/ml Hcy. Next, the solutions were plated in a black 96-well, clear, and flat bottom microplate (Greiner) and self-assembly kinetics were recorded over time at room temperature (uncontrolled gradual cooling of the solutions) with short shaking before each read. ThT emission data at 480 nm (excitation at 440 nm), were measured using a Tecan™ SPARK 10 M plate reader, gain of 100 for 2 mg/ml, and using a Tecan™ Infinite 200 PRO plate reader, gain of 90 for 5 and 10 mg/ml.

[5] = TEM of metabolite self-assembly; format: physicochemical; conditions: dissolved at 90° C., gradual cooling
Experimental: Hcy was dissolved at 90° C. in PBS at various concentrations followed by gradual cooling of the solution. […] Subsequently, 10 μL samples were placed on 400-mesh copper grids. After 2 min, excess fluids were removed. Samples were viewed using a JEOL 1200EX electron microscope operating at 80 kV.

[6] = ThT binding assay of metabolite self-assembly; format: physicochemical; conditions: emission 480 nm
Experimental: Hcy was dissolved at 90° C. in PBS to a final concentration of 10, 5 and 2 mg/mL and maintained at 90° C. until the beginning of the measurement. Samples containing polyphenols were immediately mixed with the inhibitors. […] As a control, Hcy was diluted with PBS alone to the same final concentrations. […] Next, the solutions were plated in a black 96-well, clear, and flat bottom microplate (Greiner) and self-assembly kinetics were recorded over time at room temperature (uncontrolled gradual cooling of the solutions) with short shaking before each read. […] Following an overnight incubation at room temperature with gentle rotation (uncontrolled gradual cooling of solutions), ThT emission signal at 480 nm (excitation at 450 nm) was measured at room temperature with short shaking before each read and using a Tecan™ Infinite 200 PRO plate reader, gain 90.

SH-SY5Y cells [7] = experiment: Annexin V and propidium iodide apoptosis assay (flow cytometry); format: cell-based, human
Experimental: SH-SY5Y cells were cultured at 2×10^5 cells/mL in 24-well plates in DMEM/Nutrient Mixture F12 (Ham's; 1:1) supplemented with 10% FBS and were allowed to adhere overnight at 37° C. The treatment solutions containing Hcy and methionine were prepared as described above for the MTT assay. Cells were treated with the solutions followed by overnight incubation at 37° C. Control cells were incubated with medium that was treated in the same manner without Hcy. The apoptotic effect was evaluated using the MEBCYTO Apoptosis kit (MBL International), according to the manufacturer's instructions. Briefly, the adherent cells were trypsinized, detached and combined with floating cells from the incubated growth medium. Cells were then centrifuged and washed once with PBS and once with binding buffer. Cells were subsequently incubated with annexin V-FITC and PI for 15 min in the dark, resuspended in 200 μL binding buffer and analyzed by flow cytometry using a single laser-emitting excitation light at 488 nm. Data from at least 10^4 cells were acquired using the BD FACSort and the CellQuest software (BD Biosciences). Analysis was performed using the FlowJo software (TreeStar, version 14).

β-amyloid1-42 = molecular target: T1, β-amyloid1-42 (Homo sapiens, UniProt P05067); experiment: In-vitro seeding of β-amyloid1-42 by Hcy assemblies (ThT binding assay); format: biochemical; conditions: 20% v/v pre-formed Hcy assemblies (2, 5, 10 mg/mL stocks), 3 μM β-amyloid1-42 monomers, 37° C.
T1 construct: purchased rPeptide
T1 sequence (P05067 672-713 limits assumed): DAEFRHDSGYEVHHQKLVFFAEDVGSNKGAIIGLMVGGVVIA
Experimental: Hcy was dissolved at 90° C. in PBS followed by gradual cooling of the solution. […] (rPeptide) was dissolved in DMSO to a concentration of 120 μM. The monomeric protein was mixed with pre-formed 20% v/v Hcy assemblies (taken from 10, 5 or 2 mg/mL stock solutions), or with an equivalent volume of PBS as a control, to a final concentration of 3 μM β-amyloid1-42 ThT was added to a final concentration of 20 μM. Aggregation was monitored using Tecan™ Infinite 200 PRO fluorescence plate reader over time at 37° C. Blank measurements of Hcy only (without β-amyloid) were respectively subtracted.

SH-SY5Y cells [8] = experiment: ProteoStat staining, confocal microscopy of treated SH-SY5Y cells; format: cell-based, human; conditions: Hcy assemblies 2 mg/mL, 4 hours
Experimental: SH-SY5Y cells: 2×10^5 cells/mL were cultured in DMEM/Nutrient Mixture F12 (Ham's; 1:1) supplemented with 10% FBS in 24-well plate on glass slides coated with 0.01% Poly-L-Lysine. When reaching ˜70-80% confluency, cells were treated with Hcy (2 mg/mL dissolved at 90° C. in cell media without FBS, followed by gradual cooling of the solution). After 4 hours of incubation, the cells were immediately supplemented with ProtesoStat dye diluted 1:250 in ProteoStat assay buffer followed by incubation for 15 min at room temperature protected from light. Cells were imaged using Leica TCS SP8 laser confocal microscope with ×63 1.4 NA or ×100 1.4 NA oil objectives. An argon laser with 488 excitation line was used for ProteoStat (emission wavelength, 500-600 nm).

cys4Δ yeast strain [9] = experiment: Aggregation level assay in yeast (ProteoStat, flow cytometry); format: cell-based, Saccharomyces cerevisiae; conditions: cys4Δ with 100 mg/L Hcy compared to WT and to mutant without Hcy
Experimental: For each sample, 2×10^6 cells/mL of logarithmic cells were resuspended with ProteoStat dye (Enzo Life Sciences). Cells were incubated for 15 min at room temperature protected from light. Flow cytometry was preformed using Stratedigm S1000EXi and the CellCapTure software (Stratedigm, San Jose, Calif.). Live cells were gated (P1) by forward scatter and side scatter. Fluorescence channels for FITC (530/30) and PE-Cy5 (676/29) were used utilizing a 488 nm laser source. A total of 50,000 events were acquired for each sample. Analyses were performed using the FlowJo software (TreeStar, version 14).

HEK293 cells = experiment: MTT cell viability assay, HEK293 cells; format: cell-based; conditions: HEK293 non-neuronal cell line, 24 hours
Experimental: SH-SY5Y cells (ATCC CRL-2266) or HEK293 cells (ATCC® CRL-1573) were cultured (2×10^5 cells/mL) in DMEM/Nutrient Mixture F12 (Ham's; 1:1) supplemented with 10% fetal bovine serum (FBS) in 96-well tissue microplates (100 μL per well) and allowed to adhere overnight at 37° C. Half of each plate was plated with cells, with the other half later serving as a control containing solutions alone. […] For solutions containing polyphenols, Hcy (final concentration of 2 mg/mL) was similarly dissolved in cell media and mixed with EGCG or TA (final concentration of 0.1 mM and 0.01 mM, respectively, stock solution dissolved in cell medium) before gradual cooling. The medium was replaced and cells were treated with the solutions (100 μL per well), followed by overnight incubation at 37° C. Control cells were incubated with medium that was treated in the same manner (without Hcy). Controls of media supplemented with the inhibitors, without Hcy, were examined as well. Cell viability was evaluated using the 3-(4,5-dimethylthiazolyl-2)-2,5-diphenyltetrazolium bromide (MTT) assay. Briefly, 10 μL of 5 mg/mL MTT dissolved in PBS was added to each well. After a 4 hours incubation at 37° C. […] Finally, color intensity was measured using an ELISA reader at 570 nm. […]

SMILES: O=C(OC[C@H]1O[C@@H](OC(=O)c2cc(O)c(O)c(OC(=O)c3cc(O)c(O)c(O)c3)c2)[C@H](OC(=O)c2cc(O)c(O)c(OC(=O)c3cc(O)c(O)c(O)c3)c2)[C@@H](OC(=O)c2cc(O)c(O)c(OC(=O)c3cc(O)c(O)c(O)c3)c2)[C@@H]1OC(=O)c1cc(O)c(O)c(OC(=O)c2cc(O)c(O)c(O)c2)c1)c1cc(O)c(O)c(OC(=O)c2cc(O)c(O)c(O)c2)c1 [TA, tannic acid]
- Structures seen by TEM in mixture of Hcy with polyphenol (Hcy fibrils [1]): no structures were formed
- Cell growth with TA (percentage of growth, OD600) (cys4Δ yeast strain [2]; cys4Δ, 0.3 mM TA, SD with 13 mg/L cysteine and 100 mg/L Hcy, 27 hours): significantly improved the cell growth
- Cell growth with TA (percentage of growth, OD600) (WT yeast strain (BY4741)): no effect
- Cell viability with inhibitor-containing Hcy solution compared to Hcy alone (MTT) (SH-SY5Y cells [3]; SH-SY5Y, 24 hours): significant increase in cell viability
- Inhibition of Hcy fibril formation, ThT fluorescence intensity over time (Hcy fibrils [4]): significant reduction in the ThT fluorescence intensity curves

SMILES: CSCC[C@H](N)C(=O)O [methionine]
- Formation of amyloid-like fibrils (TEM) [5]: did not form amyloid-like fibrils
- ThT fluorescence of self-assembly [6]: did not show a fluorescence signal
- Cytotoxicity (MTT cell viability) (SH-SY5Y cells [3]; SH-SY5Y, 24-hour treatment, solutions prepared in cell medium): did not show any toxicity
- Apoptotic activity (annexin V / PI) (SH-SY5Y cells [7]; SH-SY5Y, treated for 24 hours): did not show any apoptotic effect

SMILES: NC(CCS)C(=O)O (centres unmarked) [Hcy, 2-Amino-4-sulfanylbutanoic acid]
- Formation of amyloid-like fibrils (TEM) [5]: formed amyloid-like fibrils
- ThT fluorescence of self-assembly [6]: higher metabolite concentrations showing stronger ThT fluorescence
- Cross-seeding of β-amyloid1-42 aggregation (ThT signal) (β-amyloid1-42): induced β-amyloid1-42 aggregation in a concentration-dependent manner
- Detection of amyloid-like structures in cells (ProteoStat) (SH-SY5Y cells [8]): amyloid-like structures in treated SH-SY5Y cells
- Growth sensitivity to Hcy supplied in the growth medium (cys4Δ yeast strain [2]; cys4Δ compared to WT, SD media with Hcy at different concentrations): sensitivity to Hcy supplied in the growth medium was observed
- Degree of aggregation upon Hcy feeding (ProteoStat flow cytometry) (cys4Δ yeast strain [9]): significantly higher degree of aggregation
- Cytotoxicity (MTT cell viability) (SH-SY5Y cells [3]): dose-dependent cytotoxicity
- Cell death (MTT) (SH-SY5Y cells [3]; SH-SY5Y, 24-hour treatment with pre-formed Hcy assemblies in cell medium): up to 80%
- Apoptotic activity (annexin V / PI) (SH-SY5Y cells [7]): stimulated apoptotic activity in a concentration-dependent manner
- Cytotoxicity (MTT cell viability) (HEK293 cells): no significant toxicity

SMILES: O=C(O[C@@H]1Cc2c(O)cc(O)cc2O[C@@H]1c1cc(O)c(O)c(O)c1)c1cc(O)c(O)c(O)c1 [EGCG, epigallocatechin gallate]
- Structures seen by TEM in mixture of Hcy with polyphenol (Hcy fibrils [1]): no structures were formed
- Cell viability, inhibitors alone (MTT) (SH-SY5Y cells [3]; SH-SY5Y, 24 hours, EGCG 0.1 mM or TA 0.01 mM without Hcy): did not affect cell viability
- Cell viability with inhibitor-containing Hcy solution compared to Hcy alone (MTT) (SH-SY5Y cells [3]; SH-SY5Y, 24 hours): significant increase in cell viability
- Inhibition of Hcy fibril formation, ThT fluorescence intensity over time (Hcy fibrils [4]): significant reduction in the ThT fluorescence intensity curves

— US20220390471A1, “INTEGRATED DRUG DISCOVERY PLATFORM FOR PROTEIN MISFOLDING DISORDERS ASSOCIATED WITH METABOLITE ACCUMULATION” (Ramot at Tel-Aviv University Ltd., priority 2021, published 2022)
